For orientation: Km means the concentration of substrate that gives half-maximal velocity.

We go through seven compounds from paper PMC3448830 (Bioorganic & medicinal chemistry, 2012).

For one series, the target named is GABA-AT (Sus scrofa, UniProt P80147). Put plainly: Substrate activity for GABA-AT. Format: biochemical, pig. As to conditions: for Km: substrate, Hanes-Woolf plots, pH 8.5, room temperature, 16 h.
For series [1] the following is noted: following chronic administration; cited from earlier work.

Where only a bound is given, the exact number is not on record here.

Sequence of GABA-AT (P80147 29-500): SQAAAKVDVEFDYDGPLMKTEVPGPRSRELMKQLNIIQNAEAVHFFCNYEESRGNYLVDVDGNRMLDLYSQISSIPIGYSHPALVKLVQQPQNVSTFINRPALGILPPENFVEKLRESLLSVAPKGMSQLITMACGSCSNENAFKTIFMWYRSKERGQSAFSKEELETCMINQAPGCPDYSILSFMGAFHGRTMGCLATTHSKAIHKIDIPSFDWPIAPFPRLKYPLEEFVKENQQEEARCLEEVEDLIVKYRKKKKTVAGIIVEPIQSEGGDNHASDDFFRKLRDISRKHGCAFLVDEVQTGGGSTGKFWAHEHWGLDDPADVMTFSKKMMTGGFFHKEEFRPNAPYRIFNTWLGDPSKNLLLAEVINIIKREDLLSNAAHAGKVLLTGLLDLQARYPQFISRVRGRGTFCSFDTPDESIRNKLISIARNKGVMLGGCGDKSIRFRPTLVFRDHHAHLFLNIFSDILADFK

On to `Cl.NCc1cscc1C(=O)O` [Compound 6b, 4-(Aminomethyl)thiophene-3-carboxylic acid hydrochloride], for which, at GABA-AT, the “substrate activity (transamination)” value is given as “Transamination was observed” and the Km is above 10 mM.

For the compound `Cl.NCc1ccc(C(=O)O)[nH]1` [Compound 4c], the Michaelis-Menten constant (Km) result on GABA-AT is “much higher”.

As to `Cl.[2H]C([2H])(N)c1coc(C(=O)O)c1` [[D2]-5a], the “^Hk/^Dk for substrate turnover (kinetic isotope effect)” value at GABA-AT ([D2]-5a evaluated alongside unlabeled 5a) was found to be 1.22 ± 0.07.

Consider `Cl.NCc1ccc(C(=O)O)o1` [Compound 4a, 5-(Aminomethyl)furan-2-carboxylic acid hydrochloride], for which the kcat/Km result at GABA-AT (substrate efficiency) is “highest kcat/Km value”.

Consider `Cl.NCc1ccc(C(=O)O)s1` [Compound 4b, 5-(Aminomethyl)thiophene-2-carboxylic acid hydrochloride], for which the Km entry on GABA-AT is on record as “much higher”.

As to `C=CC(N)CCC(=O)O` (centres unmarked) [Compound 1, 4-aminohex-5-enoic acid], the “patients exhibiting irreversible abnormalities in peripherial vision” value in series [1] is recorded as 25–50%.

Turning to `Cl.NCc1coc(C(=O)O)c1` [Compound 5a, 4-(Aminomethyl)furan-2-carboxylic acid hydrochloride], on GABA-AT (relative to GABA), the “Km, fold lower than that of GABA” value is “approximately 4 fold”.
